Test results taken from patent US20250101436A1, “APTAMERS AND SMALL MOLECULE LIGANDS” (MeiraGTx UK II Limited, priority 2021, published 2025).

These compounds were tested on N5-12G6 riboswitch (assay: Firefly luciferase assay, N5-12G6 riboswitch in HEK293 cells). Details: 12G6 riboswitch, HEK293.
Protocol: Transfection: 3.5×10^4 human embryonic kidney (HEK) 293 cells were plated in a 96-well flat bottom plate the day before transfection. Plasmid DNA (500 ng) was added to a tube or a 96-well U-bottom plate. Separately, TransIT-293 reagent (Mirus; 1.4 L) was added to 50 μL Optimum I media (Life Technologies) and allowed to sit for 5 minutes at room temperature (RT). Then, 50 μL of this diluted transfection reagent was added to the DNA, mixed, and incubated at RT for 20 min. Finally, 7 μL of this solution was added to a well of cells in the 96-well plate. Four hours after transfection, medium containing transfection solution was replaced by medium with either TPP or fursultiamine as aptamer ligands.
Firefly luciferase assay of cultured cells: Twenty-four hours after media change, plates were removed from the incubator, and equilibrated to RT for several minutes on a lab bench, then aspirated. Glo-lysis buffer (Promega, 100 μL, RT) was added, and the plates allowed to remain at RT for at least 5 minutes. Then, the well contents were mixed by 50 μL trituration, and 20 μL of each sample was mixed with 20 μL of bright-glo reagent (Promega) that had been diluted to 10% in glo-lysis buffer. 96 wells were spaced on an opaque white 384-well plate. Following a 5 min incubation at RT, luminescence was measured using a Tecan machine with 500 ms read time. The luciferase activity was expressed as mean arbitrary light units (ALU)±S.D., and fold induction was calculated as the quotient of the luciferase activity obtained from cells with TPP or analog compound treatment divided by the luciferase activity obtained from cells without TPP or analog compound treatment.
Fc1cc(CNc2cnccc2N2CCNCC2)cc2nccnc12 [compound 012, N-((8-Fluoroquinoxalin-6-yl)methyl)-4-(piperazin-1-yl)pyridin-3-amine] was tested, and the “regulation of luciferase expression (FIG. 4e)” value was “regulate expression in a dose-dependent fashion”.
For c1cc(N2CCCNCC2)c(NCc2ccc3nccnc3c2)cn1 [compound 014, 4-(1,4-Diazepan-1-yl)-N-(quinoxalin-6-ylmethyl)pyridin-3-amine], the “regulation of luciferase expression (FIG. 4e)” value was “regulate expression in a dose-dependent fashion”.

Same assay, conditions: 12G6 riboswitch, luciferase, HEK293, 2 μM
For Fc1cc(CNc2cncc(Cl)c2N2CCNCC2)cc2nccnc12 [compound 053, 5-chloro-N-((8-fluoroquinoxalin-6-yl)methyl)-4-(piperazin-1-yl)pyridin-3-amine], the “Fold induction 2 μM (HEK)” value was 16.8 fold.
Fc1cc(CNc2cncc(Cl)c2N2CCNCC2)cc2nccnc12 [compound 077, 5-chloro-N-((8-fluoroquinoxalin-6-yl)methyl)-4-(piperazin-1-yl)pyridin-3-amine] was tested, and the “Fold induction 2 μM (HEK)” value was 43.5 fold.

Same assay, conditions: Homo sapiens, HEK293, read-out: Fold induction 2 μM (HEK), 12G6 riboswitch, luciferase, HEK293, 2 μM
C[C@H]1CN(c2ccncc2NCc2cc(F)c3nccnc3c2)CCN1 [compound 059, (S)—N-((8-fluoroquinoxalin-6-yl)methyl)-4-(3-methylpiperazin-1-yl)pyridin-3-amine] gave a fold induction at 2 µM of 15.8.
With N#Cc1ccc(N2CCNCC2)c(NCc2ccc3nccnc3c2)c1 [compound 048, 4-(piperazin-1-yl)-3-((quinoxalin-6-ylmethyl)amino)benzonitrile] the fold induction at 2 µM was 1.
Compound Fc1cc2nccnc2cc1CNc1cncc(F)c1N1CCNCC1 [compound 082, 5-fluoro-N-((7-fluoroquinoxalin-6-yl)methyl)-4-(piperazin-1-yl)pyridin-3-amine] has a fold induction at 2 µM of 24.7.
Work on Fc1cncc(NCc2ccc3nccnc3c2)c1N1CCNCC1 [compound 073, 5-fluoro-4-(piperazin-1-yl)-N-(quinoxalin-6-ylmethyl)pyridin-3-amine] yielded a fold induction at 2 µM of 43.9.
For C[C@H]1CNCCN1c1ccncc1NCc1cc2nccnc2cc1Cl [compound 063, (S)—N-((7-chloroquinoxalin-6-yl)methyl)-4-(2-methylpiperazin-1-yl)pyridin-3-amine], the fold induction at 2 µM was 2.7.
Brc1cncc(NCc2ccc3nccnc3c2)c1N1CCNCC1 [compound 074, 5-bromo-4-(piperazin-1-yl)-N-(quinoxalin-6-ylmethyl)pyridin-3-amine] gave a fold induction at 2 µM of 48.6.
Work on C[C@H]1CN(c2ccncc2NCc2cc(Cl)c3nccnc3c2)CCN1 [compound 101, (S)—N-((8-chloroquinoxalin-6-yl)methyl)-4-(3-methylpiperazin-1-yl)pyridin-3-amine] yielded a fold induction at 2 µM of 2.2.
Work on C[C@H]1CN(c2ccncc2NCc2cc3nccnc3cc2Cl)CCN1 [compound 057, (S)—N-((7-chloroquinoxalin-6-yl)methyl)-4-(3-methylpiperazin-1-yl)pyridin-3-amine] yielded a fold induction at 2 µM of 22.3.
With COc1cncc(NCc2ccc3nccnc3c2)c1N1CCNCC1 [compound 075, 5-methoxy-4-(piperazin-1-yl)-N-(quinoxalin-6-ylmethyl)pyridin-3-amine] the fold induction at 2 µM was 18.6.
Compound Clc1cncc(NCc2ccc3nccnc3c2)c1N1CCCNCC1 [compound 093, 5-chloro-4-(1,4-diazepan-1-yl)-N-(quinoxalin-6-ylmethyl)pyridin-3-amine] has a fold induction at 2 µM of 30.7.
Work on C[C@H]1CN(c2c(Cl)cncc2NCc2ccc3nccnc3c2)CCN1 [compound 025, (S)-5-Chloro-4-(3-methylpiperazin-1-yl)-N-(quinoxalin-6-ylmethyl)pyridin-3-amine] yielded a fold induction at 2 µM of 42.6.
Work on COc1cc2nccnc2cc1CNc1cnccc1N1CCNCC1 [compound 072, N-((7-methoxyquinoxalin-6-yl)methyl)-4-(piperazin-1-yl)pyridin-3-amine] yielded a fold induction at 2 µM of 19.6.
Compound Fc1cncc(NCc2cc(F)c3nccnc3c2)c1N1CCCNCC1 [compound 095, 4-(1,4-diazepan-1-yl)-5-fluoro-N-((8-fluoroquinoxalin-6-yl)methyl)pyridin-3-amine] has a fold induction at 2 µM of 8.9.
Clc1cc2nccnc2cc1CNc1cnccc1N1C[C@H]2C[C@@H]1CN2 [compound 098, 4-((1R,4R)-2,5-diazabicyclo[2.2.1]heptan-2-yl)-N-((7-chloroquinoxalin-6-yl)methyl)pyridin-3-amine] showed a fold induction at 2 µM of 4.5.
Compound C[C@@H]1CNCCN1c1ccncc1NCc1cc2nccnc2cc1F [compound 100, (R)—N-((7-fluoroquinoxalin-6-yl)methyl)-4-(2-methylpiperazin-1-yl)pyridin-3-amine] has a fold induction at 2 µM of 3.5.
Fc1cncc(NCc2cc3nccnc3cc2Cl)c1N1CCNCC1 [compound 083, N-((7-chloroquinoxalin-6-yl)methyl)-5-fluoro-4-(piperazin-1-yl)pyridin-3-amine] showed a fold induction at 2 µM of 12.8.
Work on Brc1cncc(NCc2ccc3nccnc3c2)c1OC1CNC1 [compound 112, 4-(azetidin-3-yloxy)-5-bromo-N-(quinoxalin-6-ylmethyl)pyridin-3-amine] yielded a fold induction at 2 µM of 40.9.
FC(F)c1cncc(NCc2ccc3nccnc3c2)c1N1CCNCC1 [compound 076, 5-(difluoromethyl)-4-(piperazin-1-yl)-N-(quinoxalin-6-ylmethyl)pyridin-3-amine] gave a fold induction at 2 µM of 117.
For Cc1cncc(NCc2cc3nccnc3cc2F)c1N1CCNCC1 [compound 086, N-((7-fluoroquinoxalin-6-yl)methyl)-5-methyl-4-(piperazin-1-yl)pyridin-3-amine], the fold induction at 2 µM was 17.3.
For Cc1cc(CNc2cnccc2O[C@@H]2CCNC2)cc2nccnc12 [compound 122, (R)—N-((8-methylquinoxalin-6-yl)methyl)-4-(pyrrolidin-3-yloxy)pyridin-3-amine], the fold induction at 2 µM was 35.8.
Work on Fc1cc(CNc2cnccc2O[C@@H]2CCNC2)cc2nccnc12 [compound 105, (R)—N-((8-fluoroquinoxalin-6-yl)methyl)-4-(pyrrolidin-3-yloxy)pyridin-3-amine] yielded a fold induction at 2 µM of 37.7.
Cc1cc2nccnc2cc1CNc1cnccc1N1CCNCC1 [compound 069, N-((7-methylquinoxalin-6-yl)methyl)-4-(piperazin-1-yl)pyridin-3-amine] gave a fold induction at 2 µM of 28.3.
Work on C[C@@H]1CN(c2ccncc2NCc2cc3nccnc3cc2Cl)CCN1 [compound 058, (R)—N-((7-chloroquinoxalin-6-yl)methyl)-4-(3-methylpiperazin-1-yl)pyridin-3-amine] yielded a fold induction at 2 µM of 6.1.
c1cnc2cc(CNc3cnc4[nH]ccc4c3N3CCNCC3)ccc2n1 [compound 114, 4-(piperazin-1-yl)-N-(quinoxalin-6-ylmethyl)-1H-pyrrolo[2,3-b]pyridin-5-amine] showed a fold induction at 2 µM of 60.1.
Cc1cncc(NCc2ccc3nccnc3c2)c1N1CCN[C@@H](C)C1 [compound 104, (S)-5-methyl-4-(3-methylpiperazin-1-yl)-N-(quinoxalin-6-ylmethyl)pyridin-3-amine] showed a fold induction at 2 µM of 33.3.
Fc1cc2nccnc2cc1CNc1cnccc1O[C@@H]1CCNC1 [compound 107, (R)—N-((7-fluoroquinoxalin-6-yl)methyl)-4-(pyrrolidin-3-yloxy)pyridin-3-amine] was tested, and the fold induction at 2 µM was 48.7.
For Cc1cc2nccnc2cc1CNc1cnccc1O[C@@H]1CCNC1 [compound 123, (R)—N-((7-methylquinoxalin-6-yl)methyl)-4-(pyrrolidin-3-yloxy)pyridin-3-amine], the fold induction at 2 µM was 83.9.
Work on Fc1cc2nccnc2cc1CNc1cnccc1N1CCNCC1 [compound 050, N-((7-fluoroquinoxalin-6-yl)methyl)-4-(piperazin-1-yl)pyridin-3-amine] yielded a fold induction at 2 µM of 23.5.
Compound Clc1cc2nccnc2cc1CNc1cncc(Cl)c1N1CCNCC1 [compound 054, 5-chloro-N-((7-chloroquinoxalin-6-yl)methyl)-4-(piperazin-1-yl)pyridin-3-amine] has a fold induction at 2 µM of 10.6.
c1cc(O[C@@H]2CCNC2)c(NCc2ccc3nccnc3c2)cn1 [compound 021, (R)-4-(pyrrolidin-3-yloxy)-N-(quinoxalin-6-ylmethyl)pyridin-3-amine] gave a fold induction at 2 µM of 68.4.
Cc1cc(N2CCNCC2)c(NCc2ccc3nccnc3c2)cn1 [compound 118, 6-methyl-4-(piperazin-1-yl)-N-(quinoxalin-6-ylmethyl)pyridin-3-amine] gave a fold induction at 2 µM of 26.2.
Work on C[C@@H]1CNCCN1c1c(Cl)cncc1NCc1ccc2nccnc2c1 [compound 026, (R)-5-Chloro-4-(2-methylpiperazin-1-yl)-N-(quinoxalin-6-ylmethyl)pyridin-3-amine] yielded a fold induction at 2 µM of 27.2.
Compound Fc1cc2nccnc2cc1CNc1cncc(Cl)c1O[C@@H]1CCNC1 [compound 120, (R)-5-chloro-N-((7-fluoroquinoxalin-6-yl)methyl)-4-(pyrrolidin-3-yloxy)pyridin-3-amine] has a fold induction at 2 µM of 24.7.

Same assay, conditions: Homo sapiens, HEK293, read-out: Fold induction 3.3 μM (HEK), 12G6 riboswitch, luciferase, HEK293, 3.3 μM
Compound C[C@@H]1CN(c2ccncc2NCc2ccc3nccnc3c2)CCN1 [compound 043, (R)-4-(3-methylpiperazin-1-yl)-N-(quinoxalin-6-ylmethyl)pyridin-3-amine] has a fold induction at 3.3 µM of 31.
C[C@H]1CN(c2ccncc2NCc2ccc3nccnc3c2)CCN1 [compound 042, (S)-4-(3-methylpiperazin-1-yl)-N-(quinoxalin-6-ylmethyl)pyridin-3-amine] gave a fold induction at 3.3 µM of 29.
Compound c1cc(O[C@@H]2CCNC2)c(NCc2ccc3nccnc3c2)cn1 [compound 021, (R)-4-(pyrrolidin-3-yloxy)-N-(quinoxalin-6-ylmethyl)pyridin-3-amine] has a fold induction at 3.3 µM of 62.

Same assay, conditions: Homo sapiens, HEK293, read-out: Fold induction 25 μM (HEK), 12G6 riboswitch, luciferase, HEK293, 25 μM
Work on Fc1cc(CNc2cnccc2N2CCNCC2)cc2nccnc12 [compound 012, N-((8-Fluoroquinoxalin-6-yl)methyl)-4-(piperazin-1-yl)pyridin-3-amine] yielded a fold induction at 25 µM of 383.
NC1CCN(c2ccncc2NCc2ccc3nccnc3c2)CC1 [compound 033, 4-(4-aminopiperidin-1-yl)-N-(quinoxalin-6-ylmethyl)pyridin-3-amine] was tested, and the fold induction at 25 µM was 7.8.
Work on O=C1CN(c2ccncc2NCc2ccc3nccnc3c2)CCN1 [compound 038, 4-(3-((quinoxalin-6-ylmethyl)amino)pyridin-4-yl)piperazin-2-one] yielded a fold induction at 25 µM of 2.9.
c1cc(N2CCCNCC2)c(NCc2ccc3nccnc3c2)cn1 [compound 014, 4-(1,4-Diazepan-1-yl)-N-(quinoxalin-6-ylmethyl)pyridin-3-amine] gave a fold induction at 25 µM of 251.
In the case of c1cc(N2CC3CC2CN3)c(NCc2ccc3nccnc3c2)cn1 (stereo not drawn) [compound 030, 4-(2,5-diazabicyclo[2.2.1]heptan-2-yl)-N-(quinoxalin-6-ylmethyl)pyridin-3-amine], the fold induction at 25 µM is reported as 82.9.
